In patent publication US10987430B2, “Di-substituted maleic amide linker for antibody drug conjugating and preparation method and use thereof” (Mabwell (shanghai) Bioscience Co., Ltd., priority 2016, dated 2021):

Assays:
[1] = test system: human gastric cancer NCI-N87 subcutaneous xenografts; assay: In vivo anti-tumor efficacy assay (FIG. 24), IV on D 0; design: species or system BALB/cA-nude mice; details: 1.0 mg/kg
Protocol: (§1) 6-7 weeks BALB/cA-nude mice (♀) were purchased from Shanghai Lingchang Biotechnology Co., Ltd. Production license number: SCXK (Shanghai) 2013-0018; animal certificate number: 2013001815683; and feeding environment: SPF level.
Those nude mice were subcutaneously inoculated with 6×10^6 human gastric cancer NCI-N87 cells, and after the tumors grew to 100-250 mm^3, the mice were divided into groups (D0) according to tumor volumes. The mice were injected intravenously (IV), each with an administration volume 10 mL/kg; mice in vehicle control group was administered with the same volume of “vehicle” (physiological saline containing 0.1% BSA). Tumor volume was measured 2 times a week, the mice were weighed, and corresponding data were recorded.
The purpose of this experiment was to investigate the effect of the drugs on tumor growth using specific indicators T/C % or tumor growth inhibition value (TGI) (%).
Tumor diameters were measured twice a week with a vernier caliper. The tumor volume (V) was calculated as: V=½×a×b^2; in which a and b represent length and width respectively. T/C(%)=(T−T0)/(C−C0)×100, in which T and C represent the tumor volumes at the end of the experiment; T0 and C0 represent the tumor volumes at the beginning of the experiment. […]

[2] = test system: NCI-N87 human gastric cancer cells; assay: SRB cell proliferation assay in vitro; assay type: cell-based
From the text: (§2) Sulforhodamine B (SRB)-based colorimetric method was used in this Example to evaluate the anti-proliferative effect of the drugs. SRB is a pink anionic dye which is easily soluble in water and can specifically bind to basic amino acids making up proteins in cells under an acidic condition. It provides an absorption peak at 510 nm, and the absorbance is linearly and positively correlated with the amount of cells. In this regard, the method can be used in a quantitative detection of cell number.
(§3) BT-474, SK-BR-3 and NCI-N87 cells in RPMI 1640 medium containing 10% fetal bovine serum, SKOV-3, Du-145, Panc-1, MCF-7 and MDA-MB-231 cells in DMEM containing 10% fetal bovine serum, and MDA-MB-468 cells in DMEM/F12 containing 10% fetal bovine serum were incubated to logarithmic growth phase in a 5% CO2 incubator at 37° C. The above cells in the logarithmic growth phase were inoculated into 96-well plates at a density of 2×10^3 to 9×10^3 cells per well, 100 μL per well, cultured for 24 hours and then different concentrations of drugs were added thereto for 5 days. Specifically, each drug was prepared into nine concentrations by diluting in 3, 4 or 5-fold, each concentration was set in duplicate wells, and corresponding concentration of vehicle control wells and medium control wells without cells were set too. At the end of drug action, culture solutions were decanted, and 100 μl of a pre-cooled trichloroacetic acid solution (30%, w/v) at 4° C. was added to each well and the cells were fixed at 4° C. for 1 hour. Subsequently, the cells were washed with deionized water for 5 times, and dried at room temperature, and then 100 μL of 0.4% (w/v) SRB dye (Sigma, prepared with 1% glacial acetic acid) was added to each well. After being incubated and stained at room temperature for 30 minutes, the cells were washed with 1% glacial acetic acid for 4 times to remove unbound dyes, and then dried at room temperature. Afterwards, 100 μL of 10 mM Tris solution was added per well.
(§4) Sulforhodamine B (SRB)-based colorimetric method was used in this Example to evaluate the anti-proliferative effect of the drugs. […] It provides an absorption peak at 510 nm, and the absorbance is linearly and positively correlated with the amount of cells. In this regard, the method can be used in a quantitative detection of cell number.
(§5) The above cells in the logarithmic growth phase were inoculated into 96-well plates at a density of 2×10^3 to 9×10^3 cells per well, 100 μL per well, cultured for 24 hours and then different concentrations of drugs were added thereto for 5 days. […] At the end of drug action, culture solutions were decanted, and 100 μl of a pre-cooled trichloroacetic acid solution (30%, w/v) at 4° C. was added to each well and the cells were fixed at 4° C. for 1 hour.

[3] = test system: BT-474 human breast cancer cells; assay: SRB cell proliferation assay in vitro; assay type: cell-based
From the text: as §2, §3, §4, §5

[4] = test system: SK-BR-3 human breast cancer cells; assay: SRB cell proliferation assay in vitro; assay type: cell-based; details: SK-BR-3, Her2 highly expressing, 5 days, FIG. 4
From the text: as §2
BT-474, SK-BR-3 and NCI-N87 cells in RPMI 1640 medium containing 10% fetal bovine serum, SKOV-3, Du-145, Panc-1, MCF-7 and MDA-MB-231 cells in DMEM containing 10% fetal bovine serum, and MDA-MB-468 cells in DMEM/F12 containing 10% fetal bovine serum were incubated to logarithmic growth phase in a 5% CO2 incubator at 37° C. The above cells in the logarithmic growth phase were inoculated into 96-well plates at a density of 2×10^3 to 9×10^3 cells per well, 100 μL per well, cultured for 24 hours and then different concentrations of drugs were added thereto for 5 days. Specifically, each drug was prepared into nine concentrations by diluting in 3, 4 or 5-fold, each concentration was set in duplicate wells, and corresponding concentration of vehicle control wells and medium control wells without cells were set too. […]

[5] = test system: human gastric cancer NCI-N87 subcutaneous xenografts; assay: In vivo anti-tumor efficacy assay (FIG. 10), IV once a week, 2 times in total; design: species or system BALB/cA-nude mice; details: 1 mg/kg
Protocol: as §1
Those nude mice were subcutaneously inoculated with human gastric cancer NCI-N87 cells, and then randomly divided into groups (D0) when tumors grew to 100-250 mm^3. Tumor volume was measured 2-3 times a week, the mice were weighed, and corresponding data were recorded. The tumor volume (V) was calculated as: V=½×a×b^2; in which a and b represent length and width respectively. T/C (%)=(T−T0)/(C−C0)×100, in which T and C represent the tumor volumes at the end of the experiment; T0 and C0 represent the tumor volumes at the beginning of the experiment.

[6] = test system: 18 human tumor cell lines; details: cited from earlier work

P-mcVC-MMAE: comparison Pertuzumab conjugate; traditional mcVC-PAB conjugate with MMAE
% T/C D 23 [1]: 17% | % TGI D 23 [1]: 83% | Mean tumor volume (mm3) D 23 [1]: 194.6 mm3 | Partial regression ([1]; number of mice, 6 per group): 3 | complete regression ([1]; number of mice, 6 per group): 0 | inhibition of tumor cell proliferation ([2]; NCI-N87, Her2 highly expressing, 5 days, FIG. 6, FIG. 9-1): significant inhibition of tumor cell proliferation | inhibition of tumor cell proliferation ([3]; BT-474, Her2 highly expressing, 5 days, FIG. 5): significant inhibition of tumor cell proliferation | inhibition of tumor cell proliferation [4]: significant inhibition of tumor cell proliferation | mice with tumors partially regressed [5]: 2/6 | tumor inhibition rate [5]: 94%

Pertuzumab: HER2 antibody, naked antibody
IC50 ([2]; NCI-N87, 120 h): >10 µg/mL | IC50 ([3]; BT-474, 120 h): >10 µg/mL

Taltobulin
IC50 [6]: 2.5 nM
